According to patent publication US12139729B2, “Neurodegenerative disorders” (priority 2013, dated 2024):
Residues, ends and D or L forms follow the SMILES beside them.

Key:
PC12 cells [1] = assay: Cell Counting Kit-8 (CCK-8) cell viability assay; type: cell-based; conditions: T30 5 uM, FIG. 15
From the text: A Cell Counting Kit-8 (CCK-8) was used as an improvement of the SRB technique used before. By utilizing the highly water-soluble tetrazolium salt WST-8, CCK-8 produces a water-soluble formazan dye upon reduction in the presence of an electron carrier. WST-8 is reduced by dehydrogenases in cells to give a yellow colored product (formazan), which is soluble in the tissue culture medium. The amount of the formazan dye generated by the activity of dehydrogenases in cells is directly proportional to the number of living cells. PC12 cells are plated in 200 μl of complete growth medium the day before the experiment in 96 well plates. Treatments with T30 and NBP-14 are added and incubated for 1 hour in the incubator.
Subsequently, 100 μl of growth medium is removed and 10 μl of CCK-8 (Cell Counting Kit-8) solution is added. The plate is incubated for 2 hours in the incubator and then placed in the absorbance plate reader. The absorbance must be measured at 450 nm.

PC12 cells [2] = assay: Sulforhodamine B (SRB) cell viability assay; type: cell-based
Method: Wild-type PC12 cell were provided by Sigma-Aldrich (St. Louis, MO). The culture was routinely plated in 100 mm dishes (Corning) coated with collagen (2 μg/cm^2) and maintained in growth medium with Minimum Essential Medium Eagle (MEM) supplemented with heat-inactivated 10% horse serum (HS) and 5% foetal bovine serum (FBS), 10 mM HEPES, 2 mM L-Glutamine and 1:400 Penicillin/streptomycin solution. Cells were maintained at 37° C. in a humidified atmosphere 5% CO2 and the medium was replaced every 2 days. For splitting, cells were dislodged from the dish using a pipette with medium, with a portion of these replated onto new cultured dishes. Cells were used between passages 12 and 25.
The cell viability assay used was the sulforhodamine B (SRB) colorimetric assay for toxicity screening. The day before of the experiment cells were seeded onto collagen-coated 96-well plates in a concentration of 40,000 cells/well. Cell concentration was determined by the Fuchs-Rosenthal chamber. […] After treatment, medium was replaced and cells were fixed by adding 100 μl of 10% Trichloroacetic Acid (TCA) for 1 h at 4° C. Thereafter, cells were washed with H2O and stained with 100 μl of a 0.057% SRB solution in 1% Acetic acid (HAc) for 30 minutes at room temperature. After staining cells were washed with 1% HAc for removing the excess of SRB and then incubated with 200 μl of 10 mM Tris base (pH 10.5) and shake it for 5 minutes to solubilise the protein-bound dye. Measurement of the absorbance took place in a VMax Kinetic Microplate Reader (Molecular Devices) at 490 nm.

[3] = system: rat model for hemi-Parkinsonism; assay: Paw placement test (cylinder test) after 6-OHDA lesion; type: in vivo; conditions: day 2: two days post 6-OHDA, one day after NBP-14 injection via cannula into MFB; p<0.05 vs 6-OHDA vehicle
Method: Unlike animal models for Alzheimer's disease, the rat model for hemi-Parkinsonism is very well established and readily quantifiable. Accordingly, a unilateral intra striatum injection of the T30 was administered to observe any behavioural effects of the toxin. In a subsequent experiment, the potential protective effects of NBP14 were observed against the well-known neurotoxin 6-hydroxydopamine (6-OHDA), which led to DA neuron loss on the injected side whilst sparing the contralateral DA neurons. NBP-14 was administered via implanted cannula into the medial forebrain bundle (MFB). 6-hydroxydopamine was injected at 10 mg/kg.
Animals are anaesthetized using Ketamine (10%; 0.1 ml/kg body weight) and Xylazine (2%; 0.01 ml/kg). The animals are then stereotactically injected into the MFB with 2 μL 6-OHDA at a concentration of 20 mg/ml in 0.02% ascorbic acid. […]
Paw Placement Test (Cylinder Test): This test assesses a rat's independent forelimb use to support the body against the walls of a cylindrical enclosure. […] To perform this test, rats are placed individually in a glass cylinder (21 cm diameter, 34 cm height) and wall exploration is recorded for 3 minutes. […] Wall exploration is expressed in terms of the ratio between the intact (R) and impaired legs (L) and calculated as the values of intact right+both forelimbs divided into the values of impaired left+both forelimbs (R/L). […]

Structure (SMILES): CSCC[C@@H]1NC(=O)[C@H](Cc2ccc(O)cc2)NC(=O)[C@H](CO)NC(=O)[C@H](CO)NC(=O)[C@H](Cc2c[nH]c3ccccc23)NC(=O)[C@H](CCCNC(=N)N)NC(=O)[C@H](Cc2c[nH]cn2)NC(=O)[C@H](Cc2ccccc2)NC(=O)[C@H](CCC(=O)O)NC(=O)[C@H](C)NC(=O)[C@H](CCCCN)NC(=O)[C@H](Cc2c[nH]c3ccccc23)NC(=O)[C@H](Cc2c[nH]cn2)NC(=O)[C@H](C(C)C)NC1=O [Cyclic T14] (cyclo(AEFHRWSSYMVHWK))
- concentration range protective against T30 induced cell death (PC12 cells [1]): high nanomolar range
- protection against non-specific cytotoxic effect of H2O2 (H2O2 alone vs combined) (PC12 cells [2]; H2O2 100 μM + Cyclic T14 100 nM, PC12): no significant difference
- threshold dose for full protection against β-amyloid (PC12 cells [2]; PC12, 1 hour): 1 nM
- minimum effective concentration against β-Amyloid (10 μM) on cell viability (PC12 cells [2]; PC12, FIG. 8): 1 nM
- blocks β-Amyloid at low doses (Table 3 feature) (PC12 cells [2]; ✓ = Dream Drug feature 'Blocks β-Amyloid at low doses 1 nM)'): ✓
- R/L ratio of paw placement [3]: 3.62±0.55
